Test results from US10392383B2, “3-(1H-benzo[d]imidazol-2-yl)-1H-pyrazolo[4,3-b]pyridines and therapeutic uses thereof” (Samumed, LLC, priority 2015, dated 2019).

Legend:
SW480 colon cancer cells = assay: Cell viability assay (CellTiter-Blue) in SW480 cells; type: cell-based; settings: Homo sapiens, 96 h, four days; for inhibition at 10 µM: read-out: percent inhibition at 10 μM (given for EC50 of >10 μM); for EC50: CellTiter-Blue, 10 μM to 0.0045 μM
Method: Representative compounds were screened using the following assay procedure to assess the effect on cell viability as described below.
Each compound was dissolved in DMSO as a 10 mM stock and used to prepare compound source plates. Serial dilution (1:3, 8-point dose-response curves from 10 μM to 0.0045 μM) and compound transfer was performed using the ECHO 550 (Labcyte, Sunnyvale, Calif.) into 96-well clear bottom, black-walled plates (Corning-Costar).
Approximately 2×10^3 SW480 colon cancer cells were seeded into each well and allowed to incubate in the presence or absence of compound for four days at 37° C./5% CO2. Eight replicates of DMSO-treated cells served as controls and cells treated with compound were performed in duplicate.
After incubation, 20 μL of CellTiter-Blue (Promega) was added to each well allowed to incubate for approximately 3 hours. This reagent was a buffered solution which contains resazurin, metabolically active cells were able to reduce rezarurin (blue) into resorufin (pink) which was highly fluorescent. This measured fluorescence was used as a readout for cell viability.
After incubation, the plates were read at Ex 560 nm Em 590 nm (Cytation 3, BioTek). Dose-response curves were generated and EC50 concentration values were calculated using non-linear regression curve fit in the GraphPad Prism (San Diego, Calif.) or Dotmatics' Studies Software (Bishops Stortford, UK). For EC50 of >10 μM, the percent inhibition at 10 μM is provided.

[1] = test system: primary human fibroblasts derived from IPF patients (LL29 cells) treated with TGF-β1; assay: Inhibition of the fibrotic process: αSMA staining in TGF-β1-treated LL29 fibroblasts; type: cell-based; settings: Fibroblast; for EC50: 96 h, LL29 fibroblasts treated with TGF-β1 (20 ng/mL), 4 days, Table 4; for inhibition at 10 µM: LL29 fibroblasts treated with TGF-β1, Table 4, read-out: percent inhibition at 10 μM (given in parentheses for EC50 >10 μM)
Excerpt: Representative compounds were screened using primary human fibroblasts (derived from IPF patients) treated with TGF-β1 to determine their ability to inhibit the fibrotic process.
Human Fibroblast Cell Culture: Primary human fibroblasts derived from IPF patients (LL29 cells) [^1Xiaoqiu Liu, et. al., “Fibrotic Lung Fibroblasts Show Blunted Inhibition by cAMP Due to Deficient cAMP Response Element-Binding Protein Phosphorylation”, Journal of Pharmacology and Experimental Therapeutics (2005), 315(2), 678-687; ^2Watts, K. L., et. al., “RhoA signaling modulates cyclin D1 expression in human lung fibroblasts; implications for idiopathic pulmonary fibrosis”, Respiratory Research (2006), 7(1), 88] were obtained from American Type Culture Collection (ATCC) and expanded in F12 medium supplemented with 15% Fetal Bovine Serum and Penicillin/Streptomycin.
Compound Screening: Each compound was dissolved in DMSO as a 10 mM stock and used to prepare compound source plates. Serial dilution (1:2, 11-point dose-response curves from 10 μM to […]) and compound transfer was performed using the ECHO 550 (Labcyte, Sunnyvale, Calif.) into 384-well clear bottom assay plates (Greiner Bio-One) with appropriate DMSO backfill for a final DMSO concentration of 0.1%. LL29 cells are plated at 1,500 cells/well in 80 μL/well F12 medium supplemented with 1% Fetal Bovine Serum. One hour after addition of the cells, TGF-β1 (Peprotech; 20 ng/mL) was added to the plates to induce fibrosis (ref. 1 and 2 above). Wells treated with TGF-β1 and containing DMSO were used as controls. Cells were incubated at 37° C. and 5% CO2 for 4 days. Following incubation for 4 days, SYTOX green nucleic acid stain (Life Technologies [Thermo Fisher Scientific]) was added to the wells at a final concentration of 1 μM and incubated at room temperature for 30 min. Cells were then fixed using 4% formaldehyde (Electron Microscopy Sciences), washed 3 times with PBS followed by blocking and permeabilization using 3% Bovine Serum Albumin (BSA; Sigma) and 0.3% Triton X-100 (Sigma) in PBS. Cells were then stained with antibody specific to α-smooth muscle actin (αSMA; Abcam) (ref. 1 and 2 above) in 3% Bovine Serum Albumin (BSA; Sigma) and 0.3% Triton X-100 (Sigma) in PBS, and incubated overnight at 4° C. Cells were then washed 3 times with PBS, followed by incubation with Alexa Flor-647 conjugated secondary antibody (Life Technologies [Thermo Fisher Scientific]) and DAPI at room temperature for 1 hour. Cells were then washed 3 times with PBS and plates were sealed for imaging. αSMA staining was imaged by excitation at 630 nm and emission at 665 nm and quantified using the Compartmental Analysis program on the CellInsight CX5 (Thermo Scientific). Dead or apoptotic cells were excluded from analysis based on positive SYTOX green staining. % of total cells positive for αSMA were counted in each well and normalized to the average of 11 wells treated with TGF-β1 on the same plate using Dotmatics' Studies Software. The normalized averages (fold change over untreated) of 3 replicate wells for each compound concentration were used to create dose-responses curves and EC50 values were calculated using non-linear regression curve fit in the Dotmatics' Studies Software. For EC50 of >10 μM, the percent inhibition at 10 μM is provided.

Row | Structure (SMILES) | EC50 (SW480 colon cancer cells) [µM] | inhibition at 10 µM (SW480 colon cancer cells) [%] | EC50 [1] [µM] | inhibition at 10 µM [1] [%]
1 | CCC(=O)Nc1cncc(-c2ccc3[nH]nc(-c4nc5c(N6CCCCC6)cccc5[nH]4)c3n2)c1 [Compound 169, N-(5-(3-(4-(Piperidin-1-yl)-1H-benzo[d]imidazol-2-yl)-1H-pyrazolo[4,3-b]pyridin-5-yl)pyridin-3-yl)propionamide] | > 10 | 41.4 | 0.158 | –
2 | Cc1ccc(-c2cccc3[nH]c(-c4n[nH]c5ccc(C6=CCNCC6)nc45)nc23)s1 [Compound 730, 3-(4-(5-Methylthiophen-2-yl)-1H-benzo[d]imidazol-2-yl)-5-(1,2,3,6-tetrahydropyridin-4-yl)-1H-pyrazolo[4,3-b]pyridine] | 0.642 | – | 1.34 | –
3 | COc1cncc(-c2ccc3[nH]nc(-c4nc5c(-c6ccoc6)cccc5[nH]4)c3n2)c1 [Compound 692, 3-(4-(Furan-3-yl)-1H-benzo[d]imidazol-2-yl)-5-(5-methoxypyridin-3-yl)-1H-pyrazolo[4,3-b]pyridine] | 2.1 | – | 1.41 | –
4 | CN(C)c1cncc(-c2ccc3[nH]nc(-c4nc5c(N6CCCCC6)cccc5[nH]4)c3n2)c1 [Compound 175, N,N-dimethyl-5-(3-(4-(piperidin-1-yl)-1H-benzo[d]imidazol-2-yl)-1H-pyrazolo[4,3-b]pyridin-5-yl)pyridin-3-amine] | 6.08 | – | 4.69 | –
5 | c1cc(-c2ccncc2)c2nc(-c3n[nH]c4ccc(-c5cnccn5)nc34)[nH]c2c1 [Compound 584, 5-(Pyrazin-2-yl)-3-(4-(pyridin-4-yl)-1H-benzo[d]imidazol-2-yl)-1H-pyrazolo[4,3-b]pyridine] | > 10 | 9.6 | > 10 | 10
6 | Cc1ncc(-c2ccc3[nH]nc(-c4nc5c(-c6ccoc6)cccc5[nH]4)c3n2)n1C [Compound 685, 5-(1,2-Dimethyl-1H-imidazol-5-yl)-3-(4-(furan-3-yl)-1H-benzo[d]imidazol-2-yl)-1H-pyrazolo[4,3-b]pyridine] | 0.635 | – | 5.04 | –
7 | CC(C)C(=O)Nc1cncc(-c2ccc3[nH]nc(-c4nc5c(-c6cccnc6)cccc5[nH]4)c3n2)c1 [Compound 93, N-(5-(3-(4-(Pyridin-3-yl)-1H-benzo[d]imidazol-2-yl)-1H-pyrazolo[4,3-b]pyridin-5-yl)pyridin-3-yl)isobutyramide] | > 10 | 29.9 | > 10 | 0
8 | CS(=O)(=O)NCc1cc(F)cc(-c2cccc3[nH]c(-c4n[nH]c5ccc(-c6cncc(NC(=O)CC7CCNCC7)c6)nc45)nc23)c1 [Compound 769, N-(5-(3-(4-(3-Fluoro-5-(methylsulfonamidomethyl)phenyl)-1H-benzo[d]imidazol-2-yl)-1H-pyrazolo[4,3-b]pyridin-5-yl)pyridin-3-yl)-2-(piperidin-4-yl)acetamide] | > 10 | 0 | 3.25 | –
9 | Cc1cn(-c2cccc3[nH]c(-c4n[nH]c5ccc(-c6cncc(N7CC(N)C7)n6)nc45)nc23)cn1 [Compound 622, 1-(6-(3-(4-(4-Methyl-1H-imidazol-1-yl)-1H-benzo[d]imidazol-2-yl)-1H-pyrazolo[4,3-b]pyridin-5-yl)pyrazin-2-yl)azetidin-3-amine] | > 10 | 17.8 | > 10 | 0
10 | Fc1ccc(-c2cccc3[nH]c(-c4n[nH]c5ccc(-c6cncnc6)nc45)nc23)cc1 [Compound 55, 3-(4-(4-Fluorophenyl)-1H-benzo[d]imidazol-2-yl)-5-(pyrimidin-5-yl)-1H-pyrazolo[4,3-b]pyridine] | > 10 | 4.1 | 3.07 | –

Now from value to molecule, other results behind:

Row | EC50 (SW480 colon cancer cells) [µM] | Structure (SMILES) | inhibition at 10 µM (SW480 colon cancer cells) [%] | EC50 [1] [µM] | inhibition at 10 µM [1] [%]
11 | 1.01 | COc1cccc(-c2cccc3[nH]c(-c4n[nH]c5ccc(-c6cncc(O)c6)nc45)nc23)c1 [Compound 1030, 5-(3-(4-(3-Methoxyphenyl)-1H-benzo[d]imidazol-2-yl)-1H-pyrazolo[4,3-b]pyridin-5-yl)pyridin-3-ol] | – | 0.915 | –
12 | > 10 | O=C(Nc1cncc(-c2ccc3[nH]nc(-c4nc5c(-c6ccc(Cl)s6)cccc5[nH]4)c3n2)c1)C1CCC1 [Compound 1056, N-(5-(3-(4-(5-Chlorothiophen-2-yl)-1H-benzo[d]imidazol-2-yl)-1H-pyrazolo [4,3-b]pyridin-5-yl)pyridin-3-yl)cyclobutanecarboxamide] | 0 | 2.36 | –
13 | 3.56 | CN(C)CCNc1cc(F)cc(-c2cccc3[nH]c(-c4n[nH]c5ccc(-c6cncc(OCCN7CCCC7)c6)nc45)nc23)c1 [Compound 786, N^1-(3-Fluoro-5-(2-(5-(5-(2-(pyrrolidin-1-yl)ethoxy)pyridin-3-yl)-1H-pyrazolo[4,3-b]pyridin-3-yl)-1H-benzo[d]imidazol-4-yl)phenyl)-N^2,N^2-dimethylethane-1,2-diamine] | – | 1.77 | –
14 | 9.68 | CC(C)CC(=O)Nc1cncc(-c2ccc3[nH]nc(-c4nc5c(-c6ccc(Cl)s6)cccc5[nH]4)c3n2)c1 [Compound 1037, N-(5-(3-(4-(5-Chlorothiophen-2-yl)-1H-benzo[d]imidazol-2-yl)-1H-pyrazolo [4,3-b]pyridin-5-yl)pyridin-3-yl)-3-methylbutanamide] | – | 1.39 | –
15 | 3.01 | Cn1cc(-c2ccc3[nH]nc(-c4nc5c(-c6ccc(F)cc6)cccc5[nH]4)c3n2)c(CO)n1 [Compound 1129, (4-(3-(4-(4-Fluorophenyl)-1H-benzo[d]imidazol-2-yl)-1H-pyrazolo[4,3-b]pyridin-5-yl)-1-methyl-1H-pyrazol-3-yl)methanol] | – | 1.2 | –
16 | 4.36 | O=C(Nc1cncc(-c2ccc3[nH]nc(-c4nc5c(-c6ccccc6F)cccc5[nH]4)c3n2)c1)C(F)(F)F [Compound 1126, 2,2,2-Trifluoro-N-(5-(3-(4-(2-fluorophenyl)-1H-benzo[d]imidazol-2-yl)-1H-pyrazolo[4,3-b]pyridin-5-yl)pyridin-3-yl)acetamide] | – | 2.29 | –
17 | 0.613 | Cn1cc(-c2ccc3[nH]nc(-c4nc5c(-c6ccc7c(c6)OCO7)cccc5[nH]4)c3n2)c(CO)n1 [Compound 1152, (4-(3-(4-(Benzo[d][1,3]dioxol-5-yl)-1H-benzo[d]imidazol-2-yl)-1H-pyrazolo[4,3-b]pyridin-5-yl)-1-methyl-1H-pyrazol-3-yl)methanol] | – | > 10 | 0
18 | 5.91 | COc1cccc(-c2cccc3[nH]c(-c4n[nH]c5ccc(-c6cncc(NC(=O)CC(C)(C)C)c6)nc45)nc23)c1 [Compound 1006, N-(5-(3-(4-(3-methoxyphenyl)-1H-benzo[d]imidazol-2-yl)-1H-pyrazolo[4,3-b]pyridin-5-yl)pyridin-3-yl)-3,3-dimethylbutanamide] | – | > 10 | 32.2
